The subject of test [1] is HCT-116. The test is described as follows: Induction of cell cycle arrest in human HCT-116 cells assessed as accumulation of cells at G2/M phase at 0.5 uM incubated for 24 hrs by propidium iodide staining based flow cytometry (reference value: 28.37%). Type of test: functional. A general note: Flow cytometry measures light scatter and fluorescence of single cells or particles in a stream.

Test [2] in a line: Antiproliferative activity against human COV318 cells assessed as inhibition of cell growth incubated for 72 hrs by MTT assay. Format: functional. In general terms: Tetrazolium dyes change colour on reduction, which living cells bring about.
In test [3] the test system is HCT-116. The test is described as follows: Induction of apoptosis in human HCT-116 cells assessed as late apoptotic cells at 0.5 uM incubated for 72 hrs by AnnexinV-FITC/propidium iodide staining based flow cytometry (reference value: 2.91%). Type of test: functional.
The subject of test [4] is HCT-116. The test is described as follows: Induction of apoptosis in human HCT-116 cells assessed as necrotic cells at 0.5 uM incubated for 72 hrs by AnnexinV-FITC/propidium iodide staining based flow cytometry (Rvb =0.71%). Type of test: functional.
The subject of test [5] is HCT-116. The test is described as follows: Induction of cell cycle arrest in human HCT-116 cells assessed as accumulation of cells at sub G1 phase at 1 uM incubated for 24 hrs by propidium iodide staining based flow cytometry (reference value: 0.24%). Format: functional.
Another test concerns ES-2. The test is described as follows: Antiproliferative activity against human ES2 cells assessed as inhibition of cell growth incubated for 72 hrs by MTT assay. Format: functional.
The next test deals with COLO 205. The test is described as follows: Antiproliferative activity against human COLO 205 cells assessed as inhibition of cell growth incubated for 72 hrs by MTT assay. Type of test: functional.
The subject of test [6] is HCT-116. The test is described as follows: Induction of DNA damage in human HCT-116 cells assessed as increase in H2AX phosphorylation at Ser139 residue at 0.5 to 1 uM incubated for 24 hrs by Western blot analysis. Type of test: functional, cell-based. Particulars: dose 0.5-1 µM. A general note: In western blotting, separated proteins are transferred to a membrane and probed.

A further test relates to MDA-MB-231. The test is described as follows: Antiproliferative activity against human MDA-MB-231 cells assessed as inhibition of cell growth incubated for 72 hrs by MTT assay. Format: functional.
For the next test, the system named is OAW-28. The test is described as follows: Antiproliferative activity against human OAW-28 cells assessed as inhibition of cell growth incubated for 72 hrs by MTT assay. Format: functional.
Test [7] concerns HCT-116. The test is described as follows: Induction of apoptosis in human HCT-116 cells assessed as late apoptotic cells at 1 uM incubated for 72 hrs by AnnexinV-FITC/propidium iodide staining based flow cytometry (reference value: 2.91%). Format: functional.
Another test deals with OVCAR-5. The test is described as follows: Antiproliferative activity against human OVCAR-5 cells assessed as inhibition of cell growth incubated for 72 hrs by MTT assay. Format: functional.
Test [8] has as its target Cyclin-dependent kinase 1/cyclin B (Homo sapiens, UniProt P06493). The test is described as follows: Inhibition of CDK1/Cyclin B (unknown origin) assessed as inhibition constant incubated for 30 to 60 mins presence of dithiothreitol by Cheng-Prusoff equation analysis. Format: protein-complex assay.
Test [9] concerns HCT-116. The test is described as follows: Induction of cell cycle arrest in human HCT-116 cells assessed as accumulation of cells at G1 phase at 0.5 uM incubated for 24 hrs by propidium iodide staining based flow cytometry (reference value: 51.33%). Type of test: functional.
In test [10] the test system is HCT-116. The test is described as follows: Induction of cell cycle arrest in human HCT-116 cells assessed as accumulation of cells at G2/M phase at 1 uM incubated for 24 hrs by propidium iodide staining based flow cytometry (reference value: 28.37%). Type of test: functional.
The next test has as its system KM12. The test is described as follows: Antiproliferative activity against human KM12 cells assessed as inhibition of cell growth incubated for 72 hrs by MTT assay. Format: functional.
Test [11] has as its system HCT-116. The test is described as follows: Induction of apoptosis in human HCT-116 cells assessed as viable cells at 0.5 uM incubated for 72 hrs by AnnexinV-FITC/propidium iodide staining based flow cytometry (reference value: 93.43%). Type of test: functional. The note with it: read-out: Activity.
Test [12] concerns the target Cyclin-dependent kinase 2 (Homo sapiens) (UniProt P24941). The test is described as follows: Inhibition of CDK2 in human HCT-116 cells assessed as reduction in phosphorylation at Thr821 residue incubated for 24 hrs by Western blot analysis. Format: cell-based. The note with it: dose 0.5-1 µM.
Test [13] addresses Cyclin-dependent kinase 2/cyclin E (Homo sapiens, UniProt P24941). The test is described as follows: Inhibition of CDK2/cyclin E (unknown origin) assessed as inhibition constant incubated for 30 to 60 mins presence of dithiothreitol by Cheng-Prusoff equation analysis. Type of test: protein-complex assay.
The subject of another test is HT-29. The test is described as follows: Antiproliferative activity against human HT-29 cells assessed as inhibition of cell growth incubated for 72 hrs by MTT assay. Format: functional.
For test [14], the target named is Cyclin-dependent kinase 2 (Homo sapiens) (UniProt P24941). The test is described as follows: Inhibition of CDK2 in human HCT-116 cells assessed as reduction in phosphorylation at Serine 807/811 residue incubated for 24 hrs by Western blot analysis. Type of test: cell-based. The note with it: dose 0.5-1 µM.
A short description of test [15]: Antiproliferative activity against human COV504 cells assessed as inhibition of cell growth incubated for 72 hrs by MTT assay. Format: functional.
Test [16] concerns HCT-116. The test is described as follows: Induction of cell cycle arrest in human HCT-116 cells assessed as accumulation of cells at sub G1 phase at 0.5 uM incubated for 24 hrs by propidium iodide staining based flow cytometry (reference value: 0.24%). Type of test: functional.
Another test relates to NCI-H460. The test is described as follows: Antiproliferative activity against human NCI-H460 cells assessed as inhibition of cell growth incubated for 72 hrs by MTT assay. Format: functional.
Another test has as its system MV4-11. The test is described as follows: Antiproliferative activity against human MV4-11 cells assessed as inhibition of cell growth incubated for 72 hrs by MTT assay. Type of test: functional.
For test [17], the target named is Cyclin-dependent kinase 5/CDK5 activator 1 (Homo sapiens, UniProt Q00535). The test is described as follows: Inhibition of CDK5/p25 (unknown origin) assessed as inhibition constant incubated for 30 to 60 mins presence of dithiothreitol by Cheng-Prusoff equation analysis. Format: protein-complex assay.
The subject of test [18] is HCT-116. The test is described as follows: Induction of cell cycle arrest in human HCT-116 cells assessed as accumulation of cells at S phase at 1 uM incubated for 24 hrs by propidium iodide staining based flow cytometry (reference value: 18.01%). Format: functional.
The subject of another test is A2780. The test is described as follows: Antiproliferative activity against human A2780 cells assessed as inhibition of cell growth incubated for 72 hrs by MTT assay. Format: functional.
The test system of test [19] is HCT-116. The test is described as follows: Induction of apoptosis in human HCT-116 cells assessed as viable cells at 1 uM incubated for 72 hrs by AnnexinV-FITC/propidium iodide staining based flow cytometry (reference value: 93.43%). Type of test: functional. The note with it: read-out: Activity.
The next test concerns OV-90. The test is described as follows: Antiproliferative activity against human OV-90 cells assessed as inhibition of cell growth incubated for 72 hrs by MTT assay. Format: functional.
Test [20] deals with HCT-116. The test is described as follows: Induction of cell cycle arrest in human HCT-116 cells assessed as accumulation of cells at G1 phase at 1 uM incubated for 24 hrs by propidium iodide staining based flow cytometry (reference value: 51.33%). Format: functional.
For a further test, the system named is U-251. The test is described as follows: Antiproliferative activity against human U-251 cells assessed as inhibition of cell growth incubated for 72 hrs by MTT assay. Type of test: functional.
Test [21] deals with HCT-116. The test is described as follows: Downregulation of CDC25B expression in human HCT-116 cells at 0.5 to 1 uM incubated for 24 hrs by Western blot analysis. The note with it: dose 0.5-1 µM. Format: functional, cell-based.
For test [22], the system named is HCT-116. The test is described as follows: Induction of cell cycle arrest in human HCT-116 cells assessed as accumulation of cells at S phase at 0.5 uM incubated for 24 hrs by propidium iodide staining based flow cytometry (reference value: 18.01%). Format: functional.
The subject of test [23] is HCT-116. The test is described as follows: Antiproliferative activity against human HCT-116 cells assessed as inhibition of cell growth incubated for 72 hrs by MTT assay. Format: functional.
A further test has as its system NCI-H82. The test is described as follows: Antiproliferative activity against human NCI-H82 cells assessed as inhibition of cell growth incubated for 72 hrs by MTT assay. Format: functional.
Test [24] deals with HCT-116. The test is described as follows: Induction of apoptosis in human HCT-116 cells assessed as necrotic cells at 1 uM incubated for 72 hrs by AnnexinV-FITC/propidium iodide staining based flow cytometry (Rvb =0.71%). Format: functional.
For test [25], the system named is HCT-116. The test is described as follows: Induction of apoptosis in human HCT-116 cells assessed as increase in cleaved PARP level at 0.5 to 1 uM incubated for 24 hrs by Western blot analysis. Format: functional, cell-based. Particulars: dose 0.5-1 µM.
Test [26] relates to HCT-116. The test is described as follows: Induction of apoptosis in human HCT-116 cells assessed as early apoptotic cells at 1 uM incubated for 72 hrs by AnnexinV-FITC/propidium iodide staining based flow cytometry (reference value: 2.95%). Type of test: functional.
For the next test, the system named is U-937. The test is described as follows: Antiproliferative activity against human U-937 cells assessed as inhibition of cell growth incubated for 72 hrs by MTT assay. Type of test: functional.
The subject of test [27] is HCT-116. The test is described as follows: Induction of apoptosis in human HCT-116 cells assessed as early apoptotic cells at 0.5 uM incubated for 72 hrs by AnnexinV-FITC/propidium iodide staining based flow cytometry (reference value: 2.95%). Format: functional.
The target in a further test is CDK9/cyclin T1 (Homo sapiens, UniProt P50750). The test is described as follows: Inhibition of CDK9/cyclin T1 (unknown origin) assessed as inhibition constant incubated for 30 to 60 mins presence of dithiothreitol by Cheng-Prusoff equation analysis. Type of test: protein-complex assay.
The target of a further test is CDK9/Cyclin T (Homo sapiens, UniProt P50750). The test is described as follows: Inhibition of CDK9/cyclin T (unknown origin) assessed as inhibition constant. Format: protein-complex assay.

The GI50 is the concentration that inhibits growth by half. What is called Ki is the equilibrium dissociation constant of an inhibitor or competing ligand from its target.

The source made the active and inactive calls. The rule behind the calls is not given here.

Sequence of CDK9/Cyclin T (O60563 whole entry): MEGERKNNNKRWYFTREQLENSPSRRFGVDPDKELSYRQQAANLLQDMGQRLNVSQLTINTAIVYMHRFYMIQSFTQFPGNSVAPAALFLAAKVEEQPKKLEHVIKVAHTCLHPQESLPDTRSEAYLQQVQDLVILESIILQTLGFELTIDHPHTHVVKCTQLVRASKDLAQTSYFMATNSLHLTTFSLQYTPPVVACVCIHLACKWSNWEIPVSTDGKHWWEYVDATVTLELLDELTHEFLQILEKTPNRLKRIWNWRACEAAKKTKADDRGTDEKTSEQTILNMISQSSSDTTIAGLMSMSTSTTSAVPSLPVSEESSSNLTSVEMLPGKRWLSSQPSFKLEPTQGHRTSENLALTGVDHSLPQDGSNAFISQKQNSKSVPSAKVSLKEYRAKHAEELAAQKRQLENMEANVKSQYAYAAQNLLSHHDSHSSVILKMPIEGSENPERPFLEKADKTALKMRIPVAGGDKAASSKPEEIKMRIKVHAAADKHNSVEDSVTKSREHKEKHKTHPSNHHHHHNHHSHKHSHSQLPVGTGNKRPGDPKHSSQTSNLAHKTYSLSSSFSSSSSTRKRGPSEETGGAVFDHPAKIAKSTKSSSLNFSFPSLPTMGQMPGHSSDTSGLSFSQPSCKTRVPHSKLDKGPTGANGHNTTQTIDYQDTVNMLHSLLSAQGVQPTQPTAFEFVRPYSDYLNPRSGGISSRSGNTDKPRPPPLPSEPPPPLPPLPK
Sequence of CDK9/Cyclin T (P50750 whole entry): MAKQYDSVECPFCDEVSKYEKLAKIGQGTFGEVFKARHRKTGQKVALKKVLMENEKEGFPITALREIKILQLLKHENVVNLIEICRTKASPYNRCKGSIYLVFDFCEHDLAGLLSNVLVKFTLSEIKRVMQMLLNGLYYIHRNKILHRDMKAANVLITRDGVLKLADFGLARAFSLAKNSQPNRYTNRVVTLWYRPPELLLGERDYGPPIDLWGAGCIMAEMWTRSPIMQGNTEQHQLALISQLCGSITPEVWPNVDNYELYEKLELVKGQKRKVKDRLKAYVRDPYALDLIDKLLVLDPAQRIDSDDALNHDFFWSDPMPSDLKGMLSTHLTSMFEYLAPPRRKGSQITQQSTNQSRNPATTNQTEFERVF
Sequence of CDK9/Cyclin T (O60583 whole entry, further chain): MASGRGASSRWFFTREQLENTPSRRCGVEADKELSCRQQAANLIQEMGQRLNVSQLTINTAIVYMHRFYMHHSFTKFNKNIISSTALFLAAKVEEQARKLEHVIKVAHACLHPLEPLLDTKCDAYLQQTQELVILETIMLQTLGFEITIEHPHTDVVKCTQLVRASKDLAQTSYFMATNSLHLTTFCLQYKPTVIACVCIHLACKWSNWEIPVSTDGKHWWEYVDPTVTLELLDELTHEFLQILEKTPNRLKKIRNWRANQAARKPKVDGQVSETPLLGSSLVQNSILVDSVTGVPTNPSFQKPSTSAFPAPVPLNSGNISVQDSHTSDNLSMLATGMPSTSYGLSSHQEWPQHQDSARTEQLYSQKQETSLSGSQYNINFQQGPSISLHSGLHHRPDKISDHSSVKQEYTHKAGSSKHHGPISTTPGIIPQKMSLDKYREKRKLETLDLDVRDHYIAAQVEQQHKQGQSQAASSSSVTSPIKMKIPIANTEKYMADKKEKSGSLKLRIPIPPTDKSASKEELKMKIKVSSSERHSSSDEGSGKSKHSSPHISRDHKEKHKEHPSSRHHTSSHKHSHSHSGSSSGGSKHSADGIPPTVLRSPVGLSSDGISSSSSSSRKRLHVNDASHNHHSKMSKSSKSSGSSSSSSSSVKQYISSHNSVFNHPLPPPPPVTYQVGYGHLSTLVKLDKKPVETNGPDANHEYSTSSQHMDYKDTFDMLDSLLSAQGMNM
Sequence of CDK9/cyclin T1 (O60563 whole entry): as the sequence (O60563 whole entry) above
Sequence of CDK9/cyclin T1 (P50750 whole entry): as the sequence (P50750 whole entry) above
Sequence of Cyclin-dependent kinase 5/CDK5 activator 1 (Q00535 whole entry): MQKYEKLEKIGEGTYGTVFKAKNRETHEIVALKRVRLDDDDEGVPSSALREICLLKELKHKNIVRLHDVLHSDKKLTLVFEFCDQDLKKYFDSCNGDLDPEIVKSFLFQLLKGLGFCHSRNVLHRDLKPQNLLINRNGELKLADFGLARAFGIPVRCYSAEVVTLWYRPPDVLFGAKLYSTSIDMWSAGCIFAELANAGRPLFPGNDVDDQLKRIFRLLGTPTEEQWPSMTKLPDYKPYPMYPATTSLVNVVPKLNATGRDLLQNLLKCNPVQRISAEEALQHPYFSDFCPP
Sequence of Cyclin-dependent kinase 5/CDK5 activator 1 (Q15078 whole entry, further chain): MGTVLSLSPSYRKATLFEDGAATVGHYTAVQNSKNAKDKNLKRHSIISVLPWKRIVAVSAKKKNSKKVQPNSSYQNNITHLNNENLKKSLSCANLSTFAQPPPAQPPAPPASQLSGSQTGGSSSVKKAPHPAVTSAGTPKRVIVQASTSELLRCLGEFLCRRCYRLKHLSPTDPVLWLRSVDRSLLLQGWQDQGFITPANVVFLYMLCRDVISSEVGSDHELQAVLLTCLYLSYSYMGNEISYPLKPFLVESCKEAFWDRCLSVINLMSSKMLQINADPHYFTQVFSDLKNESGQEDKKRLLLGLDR

Turning to `Cn1cc(-c2nc(Nc3ccc(S(N)(=O)=O)cc3)ncc2Cl)cn1`, the Activity in the test with HCT-116 [1] is 86.28%; with HCT-116 [3], 9.6%; with HCT-116 [4] it was 1.19%; in the test with HCT-116 [5], 2.11%; in the test with HCT-116 [7] it was 5.01%; with HCT-116 [9], 4.24%. Also, the Activity with HCT-116 [10] was 52.06%; in the test on HCT-116 [16] it was 0.51%; with HCT-116 [18] it was 18.5%; in the test with HCT-116 [20], 27.94%; with HCT-116 [22], 7.94%; in the test on HCT-116 [24], 1.83%. Besides, the Activity in the test with HCT-116 [26] was 4.78%; in the test on HCT-116 [27], 12.2%. Moreover, the 50% growth inhibitory concentration (GI50) in [2] was found to be 545 nM; in the test on ES-2, 285 nM; with COLO 205, 194 nM; with MDA-MB-231 it was 472 nM; with OAW-28, 780 nM; in the test on OVCAR-5, 108 nM. The 50% growth inhibitory concentration (GI50) with KM12 turned out to be 558 nM; with HT-29 it was 291 nM; in [15] it was 768 nM; in the test with NCI-H460, 527 nM; in the test with MV4-11, 88 nM; with A2780, 74 nM. In addition, the concentration for 50% growth inhibition (GI50) was 444 nM with OV-90; 695 nM in the test on U-251; 186 nM in the test with HCT-116 [23]; 183 nM with NCI-H82; 145 nM in the test on U-937. Also, the result in the test with HCT-116 [6] was inactive. The Ki amounted to 5 nM in test [8], 1 nM in test [13], 33 nM in [17] and 17 nM on CDK9/cyclin T1. For the same compound, the viability at 0.5 µM in the test with HCT-116 [11] came out at 77%. Moreover, the inhibition entry in test [12] and in test [14] was “Dose-Dependent Effect” throughout. For the same compound, the viability at 1 µM in the test on HCT-116 [19] is 78.4%. Also, the outcome in the test on HCT-116 [21] and in the test with HCT-116 [25] was Active.
As for `C[C@@]1(O)CCC[C@H]1n1c(=O)c(C(F)F)cc2cnc(NC3CCN(S(C)(=O)=O)CC3)nc21` [EBVACICLIB], the Ki at CDK9/Cyclin T was below 19 nM.

(Values after ChEMBL document CHEMBL5241131, “2-Anilino-4-(1-methyl-1H-pyrazol-4-yl)pyrimidine-derived CDK2 inhibitors as anticancer agents: Design, synthesis & evaluation” (Bioorg Med Chem, 2023).)
